Patent publication US6703410B1, “Crystal forms of 3-(2,4-dichlorobenzyl)-2-methyl-n-(pentylsulfonyl)-3h-benzimidazole-5-carboxamide” (Fujisawa Pharmaceutical Co., Ltd., priority 1998, dated 2004)

Columns and labels:
[1] = Relative crystallographic stability of the crystal forms; format: physicochemical; settings: comparison of crystal forms A, B and C
[2] = Transition of crystal form B into crystal form A in a heated acetone/water slurry, followed by IR spectrum; format: physicochemical; settings: suspended in acetone (51.2 g) and water (17.1 g), stirred while heating at 40° C.
Method: Crystal form B of 3-(2,4-dichlorobenzyl)-2-methyl-N-(pentylsulfonyl)-3H-benzimidazole-5-carboxamide (5.0 g) was suspended in a mixed solvent consisting of acetone (51.2 g) and water (17.1 g), and the resulting slurry was stirred while heating at 40° C. About 4 hours later, crystals in the slurry completely transitioned into those with the IR spectrum that agreed with the spectrum of crystal form A of 3-(2,4-dichlorobenzyl)-2-methyl-N-(pentylsulfonyl)-3H-benzimidazole-5-carboxamide.

Compound	crystallographic stability relative to the other crystal forms ([1]; listed as crystal form B)	time until crystals in the slurry completely transitioned into crystal form A [2]	crystallographic stability relative to the other crystal forms ([1]; listed as crystal form A)
CCCCCS(=O)(=O)NC(=O)c1ccc2nc(C)n(Cc3ccc(Cl)cc3Cl)c2c1 [Crystal form B, 3-(2,4-dichlorobenzyl)-2-methyl-N-(pentylsulfonyl)-3H-benzimidazole-5-carboxamide]	not as crystallographically stable as crystal form A	About 4 hours	
CCCCCS(=O)(=O)NC(=O)c1ccc2nc(C)n(Cc3ccc(Cl)cc3Cl)c2c1 [Crystal form A, 3-(2,4-dichlorobenzyl)-2-methyl-N-(pentylsulfonyl)-3H-benzimidazole-5-carboxamide]			crystallographically more stable than crystal form B and C
